According to patent publication EP0491103B1, “Compositions for therapeutic use comprising organogermanium derivatives” (Larranaga Mendizabal, Eusebio, priority 1990, dated 1992):

Tests used:
[1] = tested on: macrophages obtained from the mice peritoneum; assay: Test 2: Production of macrophages in mice (peritoneal macrophage count); assay type: in vivo, BALB/C mice; conditions: 1 ml subcutaneously every 3 days; for macrophage counts: after 30 days (10 sessions), first group, distilled water 1.0; for average macrophage counts: at 60 days (20 sessions), second group, distilled water 1.1
[2] = tested on: macrophages removed from the second Group mice; assay: Test 2: protein synthesis (35S-met.) and DNA synthesis (3H-Thy.) in macrophages removed from treated mice and cultured in vitro for 24 hours; assay type: in vivo, BALB/C mice; conditions: macrophages of second group mice (60 days) cultured 24 hours, water-treated mice = 100%; for relative (percentage) values of DNA synthesis: ³H-Thy.; for relative (percentage) values of protein synthesis: ³⁵S-met.
Procedure: 15 BALB/C mice (18-20 g) were divided into two groups of 5 and 10 mice. The first group was administered 1 ml of the aqueous solutions described below every 3 days for 30 days (10 sessions), subcutaneously.
The solutions applied were as follows: a) distilled water, b) sodium thiosulphate (25 g/lit), c) formic acid (0.3 g/lit), d) above described organogermanium compound solution, and e) above described organogermanium compound plus formic acid (0.3 g/lit).
Finally, the macrophages removed from the second Group mice were cultured "in vitro" for 24 hours, protein synthesis (using ³⁵S-met. as indicator) and DNA synthesis (using ³H-Thy.) determinations being made therewith.

[3] = as indicated in Miyao K. et al., DRUGS OF FUTURE 13, no. 5, 1988; cited from earlier work

Compound | macrophage counts [1] | average macrophage counts [1] | relative (percentage) values of DNA synthesis [2] [%] | relative (percentage) values of protein synthesis [2] [%] | solubility in water [3]
sodium thiosulphate | 0.9 millions of microphages per millilitre | 1.0 millions of macrophages per millilitre | 102 | 98 | –
O=CO [formic acid] | 1.2 millions of microphages per millilitre | 1.2 millions of macrophages per millilitre | 140 | 115 | –
O=C(O)C[CH2][Ge](=[O])[O][Ge](=[O])[CH2]CC(=O)O [Ge-132, carboxyethylgermanium sesquioxide] | – | – | – | – | soluble in water
